{"source": "ChEMBL document CHEMBL1147881", "about": "“Synthesis and herbicidal activity of novel pyrazolo[3,4-d]pyrimidin-4-one derivatives containing aryloxyphenoxypropionate moieties” (2007)"}
{"system": "Echinochloa crus-galli", "experiment": "Herbicidal activity against barnyard grass assessed as inhibition of root growth at 100 mg/L relative to control", "assay_type": "functional", "units": {"inhibition at 100 µg/mL": "%"}}
{"molecule": "COC(=O)C(C)Oc1ccc(Oc2nc3c(c(S(C)(=O)=O)nn3-c3ccccc3)c(=O)n2C(=O)Nc2ccccc2)cc1", "note": "(stereo not given)", "inhibition at 100 µg/mL": 93.3}
{"molecule": "COC(=O)C(C)Oc1ccc(Oc2nc3c(c(SC)nn3-c3ccccc3)c(=O)n2C(=O)Nc2ccccc2)cc1", "note": "(stereo not given)", "inhibition at 100 µg/mL": 93.5}
{"molecule": "CCCOC(=O)C(C)Oc1ccc(Oc2nc3c(c(S(C)(=O)=O)nn3-c3ccccc3)c(=O)n2C(=O)Nc2ccccc2Cl)cc1", "note": "(stereo not given)", "inhibition at 100 µg/mL": 80}
{"molecule": "CCOC(=O)C(C)Oc1ccc(Oc2nc3c(c(S(=O)(=O)Cc4ccccc4)nn3-c3ccccc3)c(=O)n2C(=O)Nc2cccc(C)c2)cc1", "note": "(stereo not given)", "inhibition at 100 µg/mL": 72.5}
{"molecule": "CCOC(=O)C(C)Oc1ccc(Oc2nc3c(c(SCc4ccccc4)nn3-c3ccccc3)c(=O)n2C(=O)Nc2cccc(C)c2)cc1", "note": "(stereo not given)", "inhibition at 100 µg/mL": 61.9}
{"system": "Echinochloa crus-galli", "experiment": "Herbicidal activity against barnyard grass assessed as inhibition of root growth at 10 mg/L relative to control", "assay_type": "functional", "units": {"inhibition at 10 µg/mL": "%"}}
{"molecule": "COC(=O)C(C)Oc1ccc(Oc2nc3c(c(S(C)(=O)=O)nn3-c3ccccc3)c(=O)n2C(=O)Nc2ccccc2)cc1", "note": "(stereo not given)", "inhibition at 10 µg/mL": 66.7}
{"molecule": "COC(=O)C(C)Oc1ccc(Oc2nc3c(c(SC)nn3-c3ccccc3)c(=O)n2C(=O)Nc2ccccc2)cc1", "note": "(stereo not given)", "inhibition at 10 µg/mL": 63}
{"molecule": "CCCOC(=O)C(C)Oc1ccc(Oc2nc3c(c(S(C)(=O)=O)nn3-c3ccccc3)c(=O)n2C(=O)Nc2ccccc2Cl)cc1", "note": "(stereo not given)", "inhibition at 10 µg/mL": 50}
{"molecule": "CCOC(=O)C(C)Oc1ccc(Oc2nc3c(c(S(=O)(=O)Cc4ccccc4)nn3-c3ccccc3)c(=O)n2C(=O)Nc2cccc(C)c2)cc1", "note": "(stereo not given)", "inhibition at 10 µg/mL": 50}
{"molecule": "CCOC(=O)C(C)Oc1ccc(Oc2nc3c(c(SCc4ccccc4)nn3-c3ccccc3)c(=O)n2C(=O)Nc2cccc(C)c2)cc1", "note": "(stereo not given)", "inhibition at 10 µg/mL": 33.3}
{"system": "Brassica napus", "experiment": "Herbicidal activity against rape assessed as inhibition of root growth at 10 mg/L relative to control", "assay_type": "functional", "units": {"inhibition at 10 µg/mL": "%"}}
{"molecule": "COC(=O)C(C)Oc1ccc(Oc2nc3c(c(S(C)(=O)=O)nn3-c3ccccc3)c(=O)n2C(=O)Nc2ccccc2)cc1", "note": "(stereo not given)", "inhibition at 10 µg/mL": 25}
{"molecule": "COC(=O)C(C)Oc1ccc(Oc2nc3c(c(SC)nn3-c3ccccc3)c(=O)n2C(=O)Nc2ccccc2)cc1", "note": "(stereo not given)", "inhibition at 10 µg/mL": 40.2}
{"molecule": "CCCOC(=O)C(C)Oc1ccc(Oc2nc3c(c(S(C)(=O)=O)nn3-c3ccccc3)c(=O)n2C(=O)Nc2ccccc2Cl)cc1", "note": "(stereo not given)", "inhibition at 10 µg/mL": 17.4}
{"molecule": "CCOC(=O)C(C)Oc1ccc(Oc2nc3c(c(S(=O)(=O)Cc4ccccc4)nn3-c3ccccc3)c(=O)n2C(=O)Nc2cccc(C)c2)cc1", "note": "(stereo not given)", "inhibition at 10 µg/mL": 9.8}
{"molecule": "CCOC(=O)C(C)Oc1ccc(Oc2nc3c(c(SCc4ccccc4)nn3-c3ccccc3)c(=O)n2C(=O)Nc2cccc(C)c2)cc1", "note": "(stereo not given)", "inhibition at 10 µg/mL": 24.4}
{"system": "Brassica napus", "experiment": "Herbicidal activity against rape assessed as inhibition of stalk growth at 100 mg/L relative to control", "assay_type": "functional", "units": {"inhibition at 100 µg/mL": "%"}}
{"molecule": "COC(=O)C(C)Oc1ccc(Oc2nc3c(c(S(C)(=O)=O)nn3-c3ccccc3)c(=O)n2C(=O)Nc2ccccc2)cc1", "note": "(stereo not given)", "inhibition at 100 µg/mL": 48.9}
{"molecule": "COC(=O)C(C)Oc1ccc(Oc2nc3c(c(SC)nn3-c3ccccc3)c(=O)n2C(=O)Nc2ccccc2)cc1", "note": "(stereo not given)", "inhibition at 100 µg/mL": 76.9}
{"molecule": "CCCOC(=O)C(C)Oc1ccc(Oc2nc3c(c(S(C)(=O)=O)nn3-c3ccccc3)c(=O)n2C(=O)Nc2ccccc2Cl)cc1", "note": "(stereo not given)", "inhibition at 100 µg/mL": 42.2}
{"molecule": "CCOC(=O)C(C)Oc1ccc(Oc2nc3c(c(S(=O)(=O)Cc4ccccc4)nn3-c3ccccc3)c(=O)n2C(=O)Nc2cccc(C)c2)cc1", "note": "(stereo not given)", "inhibition at 100 µg/mL": 6.7}
{"molecule": "CCOC(=O)C(C)Oc1ccc(Oc2nc3c(c(SCc4ccccc4)nn3-c3ccccc3)c(=O)n2C(=O)Nc2cccc(C)c2)cc1", "note": "(stereo not given)", "inhibition at 100 µg/mL": 10.6}
{"system": "Brassica napus", "experiment": "Herbicidal activity against rape assessed as inhibition of stalk growth at 10 mg/L relative to control", "assay_type": "functional", "units": {"inhibition at 10 µg/mL": "%"}}
{"molecule": "COC(=O)C(C)Oc1ccc(Oc2nc3c(c(S(C)(=O)=O)nn3-c3ccccc3)c(=O)n2C(=O)Nc2ccccc2)cc1", "note": "(stereo not given)", "inhibition at 10 µg/mL": 13.3}
{"molecule": "COC(=O)C(C)Oc1ccc(Oc2nc3c(c(SC)nn3-c3ccccc3)c(=O)n2C(=O)Nc2ccccc2)cc1", "note": "(stereo not given)", "inhibition at 10 µg/mL": 20.5}
{"molecule": "CCCOC(=O)C(C)Oc1ccc(Oc2nc3c(c(S(C)(=O)=O)nn3-c3ccccc3)c(=O)n2C(=O)Nc2ccccc2Cl)cc1", "note": "(stereo not given)", "inhibition at 10 µg/mL": -17.8}
{"molecule": "CCOC(=O)C(C)Oc1ccc(Oc2nc3c(c(S(=O)(=O)Cc4ccccc4)nn3-c3ccccc3)c(=O)n2C(=O)Nc2cccc(C)c2)cc1", "note": "(stereo not given)", "inhibition at 10 µg/mL": 6.7}
{"molecule": "CCOC(=O)C(C)Oc1ccc(Oc2nc3c(c(SCc4ccccc4)nn3-c3ccccc3)c(=O)n2C(=O)Nc2cccc(C)c2)cc1", "note": "(stereo not given)", "inhibition at 10 µg/mL": -2.1}
{"system": "Brassica napus", "experiment": "Herbicidal activity against rape assessed as inhibition of root growth at 100 mg/L relative to control", "assay_type": "functional", "units": {"inhibition at 100 µg/mL": "%"}}
{"molecule": "COC(=O)C(C)Oc1ccc(Oc2nc3c(c(S(C)(=O)=O)nn3-c3ccccc3)c(=O)n2C(=O)Nc2ccccc2)cc1", "note": "(stereo not given)", "inhibition at 100 µg/mL": 80.4}
{"molecule": "COC(=O)C(C)Oc1ccc(Oc2nc3c(c(SC)nn3-c3ccccc3)c(=O)n2C(=O)Nc2ccccc2)cc1", "note": "(stereo not given)", "inhibition at 100 µg/mL": 96.1}
{"molecule": "CCCOC(=O)C(C)Oc1ccc(Oc2nc3c(c(S(C)(=O)=O)nn3-c3ccccc3)c(=O)n2C(=O)Nc2ccccc2Cl)cc1", "note": "(stereo not given)", "inhibition at 100 µg/mL": 67.4}
{"molecule": "CCOC(=O)C(C)Oc1ccc(Oc2nc3c(c(S(=O)(=O)Cc4ccccc4)nn3-c3ccccc3)c(=O)n2C(=O)Nc2cccc(C)c2)cc1", "note": "(stereo not given)", "inhibition at 100 µg/mL": 34.8}
{"molecule": "CCOC(=O)C(C)Oc1ccc(Oc2nc3c(c(SCc4ccccc4)nn3-c3ccccc3)c(=O)n2C(=O)Nc2cccc(C)c2)cc1", "note": "(stereo not given)", "inhibition at 100 µg/mL": 32.2}
{"system": "Echinochloa crus-galli", "experiment": "Herbicidal activity against barnyard grass assessed as inhibition of stalk growth at 100 mg/L relative to control", "assay_type": "functional", "units": {"inhibition at 100 µg/mL": "%"}}
{"molecule": "COC(=O)C(C)Oc1ccc(Oc2nc3c(c(S(C)(=O)=O)nn3-c3ccccc3)c(=O)n2C(=O)Nc2ccccc2)cc1", "note": "(stereo not given)", "inhibition at 100 µg/mL": 31.6}
{"molecule": "COC(=O)C(C)Oc1ccc(Oc2nc3c(c(SC)nn3-c3ccccc3)c(=O)n2C(=O)Nc2ccccc2)cc1", "note": "(stereo not given)", "inhibition at 100 µg/mL": 68.9}
{"molecule": "CCCOC(=O)C(C)Oc1ccc(Oc2nc3c(c(S(C)(=O)=O)nn3-c3ccccc3)c(=O)n2C(=O)Nc2ccccc2Cl)cc1", "note": "(stereo not given)", "inhibition at 100 µg/mL": 23.3}
{"molecule": "CCOC(=O)C(C)Oc1ccc(Oc2nc3c(c(S(=O)(=O)Cc4ccccc4)nn3-c3ccccc3)c(=O)n2C(=O)Nc2cccc(C)c2)cc1", "note": "(stereo not given)", "inhibition at 100 µg/mL": 16.7}
{"molecule": "CCOC(=O)C(C)Oc1ccc(Oc2nc3c(c(SCc4ccccc4)nn3-c3ccccc3)c(=O)n2C(=O)Nc2cccc(C)c2)cc1", "note": "(stereo not given)", "inhibition at 100 µg/mL": -6.4}
{"system": "Echinochloa crus-galli", "experiment": "Herbicidal activity against barnyard grass assessed as inhibition of stalk growth at 10 mg/L relative to control", "assay_type": "functional", "units": {"inhibition at 10 µg/mL": "%"}}
{"molecule": "COC(=O)C(C)Oc1ccc(Oc2nc3c(c(S(C)(=O)=O)nn3-c3ccccc3)c(=O)n2C(=O)Nc2ccccc2)cc1", "note": "(stereo not given)", "inhibition at 10 µg/mL": 5.3}
{"molecule": "COC(=O)C(C)Oc1ccc(Oc2nc3c(c(SC)nn3-c3ccccc3)c(=O)n2C(=O)Nc2ccccc2)cc1", "note": "(stereo not given)", "inhibition at 10 µg/mL": 44.8}
{"molecule": "CCCOC(=O)C(C)Oc1ccc(Oc2nc3c(c(S(C)(=O)=O)nn3-c3ccccc3)c(=O)n2C(=O)Nc2ccccc2Cl)cc1", "note": "(stereo not given)", "inhibition at 10 µg/mL": 16.7}
{"molecule": "CCOC(=O)C(C)Oc1ccc(Oc2nc3c(c(S(=O)(=O)Cc4ccccc4)nn3-c3ccccc3)c(=O)n2C(=O)Nc2cccc(C)c2)cc1", "note": "(stereo not given)", "inhibition at 10 µg/mL": 13.3}
{"molecule": "CCOC(=O)C(C)Oc1ccc(Oc2nc3c(c(SCc4ccccc4)nn3-c3ccccc3)c(=O)n2C(=O)Nc2cccc(C)c2)cc1", "note": "(stereo not given)", "inhibition at 10 µg/mL": -6.4}
